Values quoted from earlier work as cited in patent US20240226060A1, “TOPICAL LIPOSOME POLYPHENOL COMPOSITIONS FOR TREATING AND PREVENTING VARIOUS SKIN DISORDERS AND METHODS OF PREPARATION THEREOF” (PANAG PHARMA INC., priority 2021, published 2024).
Like-named read-outs stand apart in the source and are kept apart here.

What was measured:
[1] = simulated physiological conditions pH 7.4 and 37° C., within 24 hours
[2] = tested on: CFA-induced arthritis
[3] = tested on: epidermolysis bullosa; conditions: CBD oil, 3 patients
[4] = tested on: facial skin aging; conditions: 1% apigenin cream, twice daily, 2 and 4 weeks
[5] = not given; remark: listed apart in the source
[6] = tested on: melasma
[7] = 2% minoxidil in MLVs
[8] = tested on: facial acne vulgaris; conditions: for revised Leeds score at week 8: baseline 5.1
[9] = surfactant micelles, U.S. Pat. No. 10,709,748
[10] = twice daily 3 days, 4 hours after last dose
[11] = 1% EGCG, 8 weeks, vs baseline and vehicle

## C=C(C)[C@@H]1CCC(C)=C[C@H]1c1c(O)cc(CCCCC)cc1O [CBD, cannabidiol]
[1]
  CBD loss: 10%
[2]; 1% CBD gel on shaved back, 4 days
  joint swelling and pain: optimally reduced swelling and alleviated pain
[2]; 10% CBD gel versus 1%
  joint swelling and pain: did not yield additional improvement
[2]; lower doses (0.1, 0.5% CBD gel)
  CFA-induced edema: no effect
[9]
  encapsulation efficiency: 86%
[3]
  patient-reported outcome: faster wound healing, less blistering, and amelioration of pain

## CCCCCc1cc(O)c2c(c1)OC(C)(C)[C@@H]1CCC(C)=C[C@@H]21 [THC, tetrahydrocannabinol]
[9]
  encapsulation efficiency: 92%

## O=c1cc(-c2ccc(O)cc2)oc2cc(O)cc(O)c12 [apigenin]
[4]
  dermal density, skin elasticity, length of fine wrinkles: Significant improvements
  skin moisture content, TEWL and skin texture: significantly improved
[5]; ethanol
  solubility: poor solubility
[5]; propylene glycol and polyethylene glycol 400
  solubility: superior solubilities

## Oc1ccc(O)cc1 [hydroquinone]
[6]; 4% cream in melasma patients
  patients presenting with erythema, burning and scaling: 71%
[6]; 4% cream, after three months
  MASI score reduction from baseline: 39%

## Clc1ccc(COC(Cn2ccnc2)c2ccc(Cl)cc2Cl)c(Cl)c1 (stereo not drawn) [miconazole nitrate]
Proliposome method with propylene glycol, El-Khordagui et al
  encapsulation efficiency: 95.6%

## Nc1cc(N2CCCCC2)nc(N)[n+]1[O-] [minoxidil]
[7]
  drug in cumulative urine samples, liposome versus suspension & solution: significant less drug
[7]; [10]
  drug content in dermis, liposome versus suspension & solution: 4-5 fold
  drug content in epidermis, liposome versus suspension & solution: 2-3 fold
  drug content on skin surface, liposome versus suspension & solution: 3-4 fold

## CC(=O)[C@H]1CC[C@H]2[C@@H]3CCC4=CC(=O)CC[C@]4(C)[C@H]3CC[C@]12C [progesterone]
DPPC/cholesterol MLVs, thin film hydration, U.S. Pat. No. 4,485,054
  encapsulation efficiency (EE): 77%

## epigallocatechin 3-gallate [EGCG]
[8]; 1% EGCG hydroalcoholic solution
  revised Leeds score at week 8: 1.2
[8]; [11]
  mean inflammatory lesion count decrease: 89%
  mean noninflammatory lesion count decrease: 79%
[8]; 5% EGCG hydroalcoholic solution
  revised Leeds score at week 8: 1.7

## isoscutellarein
liposomes, 9 parts egg PC to 2 parts flavonoid, Demetzos et al
  incorporation efficiency: 95%
